Literature values as cited in patent publication US20120093738A1, “TASTE-MASKED ORAL FORMULATIONS OF INFLUENZA ANTIVIRALS” (Rubicon Research Private Limited, priority 2009, published 2012).

Details: reconstituted multi-dose suspensions

CCOC(=O)C1=C[C@@H](OC(CC)CC)[C@H](NC(C)=O)[C@@H](N)C1 [oseltamivir phosphate]
time within which the suspension needs to be used: ≤ 10 days
